Measurements as given in patent US20170335304A1, “OXIDIZED PROTEIN HYDROLASE ACTIVITY ENHANCING AGENT AND GLYCATION STRESS INHIBITOR” (ARKRAY, Inc., priority 2016, published 2017).

Tests used:
Assay type in all cases: biochemical
[1] = target: AGEs modified bovine serum albumin (AGE-BSA) cross-linked to collagen (Bos taurus, UniProt P02769); experiment: AGEs Cross-Link Breaking Effect Confirmatory Test (Test 2); conditions: cross-link breaking reaction at 37° C. for 18 hours; punicalagin 5 mmol/L
Method: The test was carried out according to the description in Sara Vasan et al. (Nature, 382, pp275-278 (1996)).
300 μL/well of SuperBlock T20 (PBS) Blocking Buffer was added to a commercially available 96-well microplate precoated with collagen, which then was reacted at 37° C. for one hour. After the reaction, it was washed with 0.05% polyethylene (20) sorbitan monolaurate (Tween 20)/PBS(-), and then AGEs modified bovine serum albumin (AGE-BSA) was added to each well of the microplate, which then was subjected to a crosslinking reaction at 37° C. for four hours. After the reaction, it was washed with Tween 20/PBS(-). Thereafter, a plant extract was added to each well and thereby it was subjected to a cross-link breaking (cleaving) reaction at 37° C. for 18 hours. After that, it was washed with Tween 20/PBS(-) and a primary antibody (anti-albumin bovine serum rabbit-polyclonal) was added thereto, which then was reacted at room temperature for 30 minutes. […] As a reaction stop solution, 1N HCl was added thereto, and the absorbance at 450 nm (dominant wavelength)/630 nm (complementary wavelength) was measured with a microplate reader. The amount of AGE-BSA that remained was determined from a calibration curve in which the amount of AGE-BSA was varied. Furthermore, the AGE-BSA decomposition rate (Collagen cross-link decomposition rate)was determined using the following formula. […]

[2] = target: T1, Acylamino-acid releasing enzyme (AARE) (OPH) (Sus scrofa, UniProt P19205); experiment: OPH Activation Confirmatory Test (Test 2); conditions: sample solution 5 mg/ml; 24 hours at 37° C.; relative to Ref without sample; n=3
T1 construct: purchased Takara Bio Inc
T1 sequence (P19205 1-732): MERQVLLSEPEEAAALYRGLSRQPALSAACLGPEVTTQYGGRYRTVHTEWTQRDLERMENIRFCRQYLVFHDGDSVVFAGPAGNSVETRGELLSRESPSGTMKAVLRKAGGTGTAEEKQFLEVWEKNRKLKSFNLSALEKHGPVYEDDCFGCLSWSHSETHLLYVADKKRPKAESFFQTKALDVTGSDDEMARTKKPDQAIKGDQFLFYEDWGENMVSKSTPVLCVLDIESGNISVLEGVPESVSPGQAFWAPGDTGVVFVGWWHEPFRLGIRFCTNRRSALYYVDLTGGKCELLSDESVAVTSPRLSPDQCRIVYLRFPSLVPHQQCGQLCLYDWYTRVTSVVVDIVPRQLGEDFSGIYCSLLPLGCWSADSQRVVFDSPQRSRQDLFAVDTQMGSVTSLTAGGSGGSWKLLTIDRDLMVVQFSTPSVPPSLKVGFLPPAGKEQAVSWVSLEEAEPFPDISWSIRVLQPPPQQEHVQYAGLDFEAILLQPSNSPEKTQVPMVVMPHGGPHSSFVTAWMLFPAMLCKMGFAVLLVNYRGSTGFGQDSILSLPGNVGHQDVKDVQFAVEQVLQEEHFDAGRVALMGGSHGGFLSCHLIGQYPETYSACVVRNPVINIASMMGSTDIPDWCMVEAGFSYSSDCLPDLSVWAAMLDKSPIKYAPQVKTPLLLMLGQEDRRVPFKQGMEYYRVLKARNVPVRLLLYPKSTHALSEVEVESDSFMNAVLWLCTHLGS
Method: To each plant indicated in Table 3 below, 15 times its amount of water was added and it was extracted at 100° C. for 30 minutes and then was solid-liquid separated and condensed. Thereafter, it was sterilized at 100° C. or higher for 30 minutes or less, which then was spray-dried. Thus, plant extract powders were obtained.
Each plant extract powder mentioned above was diluted with distilled water so as to be 5 mg/ml, which then was used as a sample solution. […]
The OPH Solution, the AAPA solution, and the sample solution (5 mg/mi) were mixed together to be added to each well of a 96-well microplate and then were reacted for 24 hours in an incubator set at 37° C. The absorbance at 405 nm of each reaction solution was measured with a microplate reader.
The enzyme activity of the OPH was determined as variation in absorbance (reaction rate) per hour (the OPH reaction rate of the sample). On the other hand, as a reference (Ref), the same measurement was carried out without adding the sample solution and then the reaction rate was determined (the OPH reaction rate of Ref). Using the OPH reaction rate of the sample and the OPH reaction rate of Ref, the OPH activation rate (%) was calculated from the following formula (n=3). […]

[3] = AGEs Cross-Link Breaking Effect Confirmatory Test (Test 3); conditions: same measurement as Test 1, mixture solid content 7.42 mg/mL
Method: (§1) A plant extract, 10 mmol/L of PPD, and 0.2 mol/L of phosphate buffer solution (pH 7.4) were mixed together at a ratio of 5:1:4 and then were reacted at 37° C. for eight hours (n=3). After completion of the reaction, hydrochloric acid was added thereto to stop the reaction and thus a reaction solution was obtained. […] The amount of benzoic acid contained in the reaction solution was determined by subtracting the amount of benzoic acid contained in the plant extract, which was measured separately. Since 1 mol of PPD produces 1 mol of benzoic acid, the cross-link breaking rate was calculated by the following formula. Cross-link breaking rate (%)={(A−B)/C}×100 • A: The amount of benzoic acid contained in the reaction solution • B: The amount of benzoic acid contained in the plant extract • C: The amount of PPD provided for the reaction (the amount of the substrate) As a control, a test was carried out using 10 mmol/L of PTB instead of the plant extract. The same measurement as in the AGEs cross-link breaking effect confirmatory test (Test 1) was carried out except for using a mixture of plant extracts indicated in Table 6 below.

[4] = AGEs Cross-link Breaking Effect Confirmatory Test (Test 1); conditions: 10 mmol/L PPD, pH 7.4, 37° C., eight hours; n=3; PTB 10 mmol/L
Method: as §1, with “The test was carried out according to the description in […] al. (Nature, 382, pp275-278 (1996)). […] A plant” for “A plant”, “breaking rate (%)={(A-B)/C}×100 • A:” for “breaking rate (%)={(A−B)/C}×100 • A:”, “plant extract.” for “plant extract. The same measurement as in the AGEs cross-link breaking effect confirmatory test (Test 1) was carried out except for using a mixture of plant extracts indicated in Table 6 below.”

Sequence of AGEs modified bovine serum albumin (AGE-BSA) cross-linked to collagen (P02769 25-607): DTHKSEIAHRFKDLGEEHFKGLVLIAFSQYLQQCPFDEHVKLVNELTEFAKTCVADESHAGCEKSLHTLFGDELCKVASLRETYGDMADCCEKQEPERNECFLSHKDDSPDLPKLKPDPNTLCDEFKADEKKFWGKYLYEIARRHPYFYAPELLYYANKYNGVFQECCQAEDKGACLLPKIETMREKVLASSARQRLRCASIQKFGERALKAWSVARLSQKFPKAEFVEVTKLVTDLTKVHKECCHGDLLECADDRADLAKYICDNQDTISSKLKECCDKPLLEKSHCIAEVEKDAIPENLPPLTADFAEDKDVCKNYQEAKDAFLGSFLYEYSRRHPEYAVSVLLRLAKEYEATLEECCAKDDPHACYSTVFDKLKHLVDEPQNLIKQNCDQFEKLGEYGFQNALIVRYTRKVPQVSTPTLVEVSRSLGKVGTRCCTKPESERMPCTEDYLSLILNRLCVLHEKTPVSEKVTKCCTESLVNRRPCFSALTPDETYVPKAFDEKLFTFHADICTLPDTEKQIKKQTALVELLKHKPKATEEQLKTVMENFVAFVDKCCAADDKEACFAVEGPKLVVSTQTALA

O=C1O[C@H]2[C@@H]3OC(=O)c4cc(O)c(O)c(O)c4-c4c(O)c(O)c5oc(=O)c6c(c(O)c(O)c7oc(=O)c4c5c76)-c4c(cc(O)c(O)c4O)C(=O)OC[C@H]3OC(O)[C@@H]2OC(=O)c2cc(O)c(O)c(O)c2-c2c1cc(O)c(O)c2O (mixture of isomers) [Punicalagin]
Amount of Remaining AGE-BSA [1]: 343.3 ng | Collagen Cross-Link Decomposition Rate (%) [1]: 65.7%

O=C(O[C@@H]1Cc2c(O)cc(O)cc2O[C@@H]1c1cc(O)c(O)c(O)c1)c1cc(O)c(O)c(O)c1 [EGCg, Epigallocatechin gallate]
OPH Activation Rate (%) (Mean Value ± Standard Deviation) [2]: 15.5 ± 3.2%

O=C(C[n+]1ccsc1)c1ccccc1.[Br-] [PTB, N-phenacylthiazolium bromide]
Cross-Link Breaking Rate (%) (Mean Value ± Standard Deviation) [3]: 25.34 ± 0.19% | Cross-Link Breaking Rate (%) (Mean Value ± Standard Deviation) [4]: 20.47 ± 0.29%
